Measured values from patent US20250346943A1, “DEGRADER COMPOUNDS OF QSOX1 mRNA” (UNIVERSITY OF FLORIDA RESEARCH FOUNDATION, INCORPORATED, priority 2022, published 2025).
“Also recorded” adds a separate entry of the source.

Key:
[1] = system: MDA-MB-231 cells; experiment: Invasion assay; type: cell-based, human; conditions: 10 μM, 48 h
Experimental: Invasion Assay. MDA-MB-231 cells were seeded in […] and treated with compound or transfected by ASO for 48 h as described in Cell Culture. After treatment for 48 h, the medium was replaced with fresh medium that contains same concentration of compound but lacking FBS for 8 h (serum starvation). ThinCert (GBO) 24-well inserts with 8 μm pores were coated with 100 μL of 0.5 mg/mL Matrigel (Fisher Scientific: CB40234) per well, and then cells were added into the insert (50,000 cells per well). Fresh growth medium with FBS was added to a 24-well plate (600 μL each well), and the inserts containing cells were placed on the top, allowing medium to cover the bottom of the insert. After 16 h, all medium was removed, and cells were washed by 1×DPBS twice. Cells were then fixed with 3% (w/v) paraformaldehyde (PFA) in 1×DPBS at room temperature for 30 min, followed by staining with Crystal Violet (10 mg/mL; 4:1H2O:MeOH) at room temperature for 20 min. A cotton swab was used to gently remove non-invasive cells on sitting on top of the Matrigel. The inserts were then imaged under a regular optical microscope (3 views per well), and the number of invasive cells were counted manually.

[2] = system: QSOX1-a protein; experiment: QSOX1-a protein abundance by Western blotting in MDA-MB-231 cells; type: cell-based, human; conditions: 10 μM
Experimental: (§1) Measuring Protein Abundance by Western Blotting. MDA-MB-231 cells were seeded in 6-well plates at ˜50% confluency and treated with vehicle (DMSO) or compound as described above but without EU treatment. After 16 h, the compound-containing growth medium was removed and replaced with fresh medium containing compound (re-dosing). After an additional 32 h incubation, total protein was harvested (48 h total treatment time). The cells were then washed twice with cold 1×DPBS, and total protein was harvested by using Mammalian Protein Extraction Reagent (M-PER, Thermo Scientific) per the manufacturer's protocol. Protein concentration was quantified by using BCA Protein Assay Kit (Pierce), and the proteins were separated by using 10% SDS-polyacrylamide gel (20 μg protein per lane). After gel electrophoresis in 1× Running Buffer (50 mM MOPS, 50 mM Tris-base, pH 7.5, 1 mM EDTA, and 0.1% (w/v) SDS) at 120 V for 1 h, the proteins were transferred to a PVDF membrane (0.45 μm, Cytiva) at 300 mA for 1 h in 1× Transfer Buffer (25 mM Bicine, 25 mM Tris-base, pH 7.5, 1:4 MeOH:H2O). The membrane was blocked with 5% (w/v) non-fat dry milk in TBST (1×TBS containing 0.1% (v/v) Tween-20) for 1 h at room temperature. The primary antibody for QSOX1 protein (Cat #10092-932, Proteintech) or SQSTM1 protein (Cat #ab 109012, Abcam) was incubated with 1:1000 dilutions at 4° C. for 16 h. The membrane was then washed by TBST four times (5 min each) and then incubated with the secondary antibody (Cat #7074S, Cell Signaling) with 1:5000 dilution at room temperature for 2 h. The membrane was washed with TBST four times (5 min each) and imaged by using a SuperSignal West Pico Chemiluminescent Substrate (Pierce) per manufacturer's protocol. The blot was stripped by washing the membrane in 1× Stripping Buffer (200 mM glycine, pH 2.2, 4 mM SDS, 1% (v/v) Tween 20) at room temperature for 30 min, followed by blocking again as described above. […] Expression levels of proteins were quantified based on band intensity by using ImageJ. […]

[3] = system: SQSTM1 protein; experiment: SQSTM1 protein abundance by Western blotting in MDA-MB-231 cells; type: cell-based, human; conditions: F1-Amide 20 μM, F1-RIBOTAC 10 μM, 48 h
Experimental: as §1, with “temperature.” for “temperature. The primary antibody for QSOX1 protein (Cat #10092-932, Proteintech) or SQSTM1 protein (Cat #ab 109012, Abcam) was incubated with 1:1000 dilutions at 4° C. for 16 h. The membrane was then washed by TBST four times (5 min each) and then incubated with the secondary antibody (Cat #7074S, Cell Signaling) with 1:5000 dilution at room temperature for 2 h. The membrane was washed with TBST four times (5 min each) and imaged by using a SuperSignal West Pico Chemiluminescent Substrate (Pierce) per manufacturer's protocol. The blot was stripped by washing the membrane in 1× Stripping Buffer (200 mM glycine, pH 2.2, 4 mM SDS, 1% (v/v) Tween 20) at room temperature for 30 min, followed by blocking again as described above.”

[4] = system: wild type (WT) QSOX1 5′ UTR RNA hairpin; experiment: In vitro Chem-CLIP and competitive Chem-CLIP with Cy5-labeled WT RNA; type: binding, human
Experimental: (§2) In Vitro Chemical-Crosslinking and Isolation by Pull-down (Chem-CLIP) with Fluorescently Labeled RNA. Cy5-labeled RNA (100 μL, 2 μM) was folded by heating at 95° C. for 2 min in 1× Folding Buffer and cooled on ice. The RNA was then mixed with F1 at the indicated concentrations. The sample was irradiated with UV light (365 nm) for 15 min and then added to 100 μL of azide-disulfide agarose beads (Click Chemistry Tools, 1238-2) pre-washed with 200 μL of 25 mM HEPES, pH 7.0. A click reaction solution was prepared by mixing 30 μL of 250 mM sodium ascorbate, 30 μL of 10 mM CuSO4, and 30 μL of 50 mM THPTA, which was added to the sample. The sample was incubated while rotating at 37° C. for 2 h, briefly centrifuged, and then the supernatant was decanted. The beads were washed six times with 1× Washing Buffer (10 mM Tris-HCl, pH 7, 4 M NaCl, 1 mM EDTA, and 0.05% (v/v) Tween-20) following by incubation with 1× Releasing Buffer (50 mM TCEP and 100 mM K2CO3) at 37° C. for 30 min. An equivalent of iodoacetamide (200 mM) was added to the sample, which was incubated at 37° C. for an additional 30 min. The sample was briefly centrifuged and supernatant containing RNA was carefully transferred to a clean tube. Cy-5 fluorescence in the supernatant was measured with a Molecular Devices SpectraMax M5 plate reader with an excitation wavelength of 640 nm and an emission wavelength of 680 nm. For competitive Chem-CLIP, F1-RIBOTAC was added to the folded the RNA and incubated at room temperature for 15 min prior to the addition of F1. Pull-down was then completed as described above.

[5] = system: mutant RNA lacking U-bulge (fully paired RNA); experiment: In vitro binding by fluorescence polarization, Cy5-labeled mutant RNA
Experimental: In Vitro Binding by Measuring Changes in Fluorescence Polarization. Cy5-labeled RNA was folded by heating at 95° C. for 2 min in 1× Folding Buffer and cooled on ice. Serial dilutions of F1 (200 to 0.4 μM, 1:1 dilutions) were prepared in 1× Folding Buffer with 4% (w/v) bovine serum albumin (BSA) with constant DMSO concentration (2% v/v). The compound solutions (10 μL) were added to a well of non-binding 384-well plate (Corning). An equal volume of folded RNA was adding to each well with a final concentration of 50 nM. The samples were incubated at room temperature for 30 min, and then fluorescence polarization was measured with a Molecular Devices SpectraMax M5 plate reader with an excitation wavelength of 640 nm and an emission wavelength of 680 nm.

[6] = system: base paired (BP) mutant RNA lacking the U-bulge; experiment: In vitro Chem-CLIP with Cy5-labeled mutant RNA; type: binding; conditions: U-bulge mutated to A/U base pair
Experimental: as §2, with “For competitive Chem-CLIP, F1-RIBOTAC was added to the folded the RNA and incubated at room temperature for 15 min prior to the addition of F1. Pull-down was then completed as described above.” left out

Row | Structure (SMILES) | reduction of the number of invasive MDA-MB-231 cells [1] [%] | reduction of QSOX1-a protein abundance [2] [%] | effect on SQSTM1 protein levels [3] | competition of F1 cross-linking to the QSOX1-a target site (competitive Chem-CLIP) ([4]; constant concentration of F1, increasing competitor) | binding to fully paired RNA (U bulge converted to AU base pair) [5] | cross-linking / pull-down of mutant RNA [6] | cross-linking / pull-down of WT QSOX1-a 5′ UTR hairpin ([4]; in vitro Chem-CLIP)
1 | CCOC(=O)C1=C(Nc2ccccc2)S/C(=C\c2ccc(OCCOCCOCCOCCNC(=O)CCC(=O)N(C)[C@H]3CC[C@@H](c4ccc(Cl)c(Cl)c4)c4ccccc43)c(O)c2)C1=O [Compound F1-RIBOTAC] | ~40 | ~35 | Neither | dose-dependently competed off; also recorded: dose-dependently ablates | – | – | –
2 | C#CCCC1(CCC(=O)N(C)[C@H]2CC[C@@H](c3ccc(Cl)c(Cl)c3)c3ccccc32)N=N1 [Compound F1] | – | – | – | – | no detectable binding | ablated | selectively cross-linked; also recorded: significantly pulled down
